{"source": "patent US20150335558A1", "about": "“NERVE GROWTH INHIBITOR, CUTANEOUS-SENSORY-IRRITATION INHIBITOR, AND MARKER FOR CUTANEOUS-SENSORY-IRRITATION DETECTION” (HOYU CO., LTD., priority 2012, published 2015)", "key": {"[1]": {"tested_on": "L-histidine decarboxylase (HDC)", "experiment": "HDC expression amount in mouse epidermis and dermis by Western blot (Sample Experiment 1-3)", "type": "in vivo", "settings": "ICR mice, Day 4, 10% SDS vs solvent control", "excerpt": "Concerning the epidermis and dermis obtained by the method in the “Amount of Histamine in Mouse Skin” section above, the HDC in the epidermis and the HDC in the dermis were quantitatively determined by the Western blot analysis. The protein in the epidermis and the dermis was extracted using the Mammalian cell lysis kit (Sigma, Tokyo, Japan).\nThe protein extract was subjected to centrifugation and the obtained supernatant was used as a protein solution. The amount of protein in the protein solution was quantitatively determined using a protein quantification kit, 2-D Quant Kit of GE Health Care Bioscience Co. Then, a sample buffer containing a reducing agent, 2-mercaptoethanol, was added to a certain amount of protein, and the mixture was reacted at 95° C. to cut the disulfide bond in the protein structure. This enables electrophoresis that reflects the molecular amount.\nThe protein solution processed in the above manner was subjected to the Western blot analysis. In other words, electrophoresis was performed according to the following electrophoresis condition. As a result, protein was separated according to the molecular amount. Then, the separated protein was transcribed to the membrane according to the following transcription condition.\nApplied gel: Nupage 4%-12% Bis-tris gels (Invitrogen Corp., Carlsbad, Calif.) Electrophoresis buffer: 3-morpholinopropanesulfonic acid (MOPS) buffer Current/electrophoresis time: 200V, 100 mins.\nApplied membrane: Polyvinylidene Fluoride (PVDF) membrane Electrophoresis buffer: NuPAGE transcription buffer (Invitrogen Corp., Carlsbad, Calif.) pos Current/electrophoresis time: 30V, 60 mins.\nThe membrane was cut at about 50 kDa after transcription. Then, blocking was performed with a 1% skim milk aqueous solution. […] After processing the secondary antibody and then washing each membrane with PBS-T (a solution comprising PBS and 0.1% Tween20), a band was detected with a fluorescent scanner. Then, the detected band was determined by quantification using an image analysis software Scion Image (Scion. Corp., Frederick, Md., USA). The Scion Image is a software that selects the band of the protein to be quantified, reads the band area and the density of the color tone, and detects the numerical value corresponding to the protein expression amount based on those information.\nHDC and β-actin (component of the cytoskeleton) are detected from the above processing. […]"}, "[2]": {"tested_on": "mast cell deficient mice (WBB6F1-W/W^V) and normal control mice (WBB6F1-+/+)", "experiment": "Scratch bouts of mast cell deficient and normal control mice after 10% SDS application (Sample Experiment 1-2)", "type": "in vivo, mouse", "settings": "both mast cell deficient and normal control mice, 10% SDS aqueous solution 50 μL single application; no significant difference between both mice", "procedure": "The present Sample Experiment was conducted using mast cell deficient mice and normal control mice, and SDS was used as a stimulating substance to analyze the scratch bouts of mice. Further, the amount of histamine in the skin of each mouse was assessed after SDS had been applied. Male mast cell deficient mice at ages of 7 to 8 weeks (WBB6F1-W/W^V mouse), purchased from Japan SLC, and normal control mice that are wild mice at ages of 7 to 8 weeks (WBB6F1-+/+mouse) were used. The mice were given solid feed under free water supply and subjected to preliminary rearing for 7 days or longer under a constant temperature/constant humidity environment with a temperature of 22±2° C., and a humidity of 55±10% before they were used in the test. The mice for use were used in the test at least 3 days after shearing/depilating the rostral back of each mouse. A 10% aqueous solution composed of SDS dissolved in distilled water was applied a single time at 50 μL as a stimulating substance against the skin to the sheared/depilated rostral back of the mice mentioned above. If the surfactant solution had turned hard before application, it was heated and dissolved in a hot water bath of 37° C. before use. Distilled water was applied to the solvent control group (Vehicle). […]"}, "[3]": {"tested_on": "histamine in mouse epidermis and dermis", "experiment": "Amount of histamine in ICR mouse skin after SDS (Sample Experiment 1-3)", "type": "in vivo", "settings": "ICR mice, Day 4, 10% SDS application group vs solvent control", "procedure": "The present Sample Experiment was conducted using ICR mice, and SDS was used as a stimulating substance. After SDS was applied, the amount of histamine in the skin of each mouse was assessed, and so was the HDC expression amount in the skin of each mouse. The same ICR mice as used in Sample Experiment 1-1 was used. Treatments of the ICR mice, such as preliminary rearing, and the shearing/depilating of the rotal back, were performed similarly to Sample Experiment 1-1. A 10% aqueous solution obtained by dissolving SDS in distilled water was applied to the mouse rostal back as a stimulating substance against the skin similarly to Sample Experiment 1-1. Distilled water was applied to the solvent control group (Vehicle). Skin was collected by operations similar to that mentioned in “Amount of Histamine in Mouse Skin” in Sample Experiment 1-2 from each ICR mouse of the 10% SDS aqueous solution application group and the solvent control group mentioned above after 4 days had passed from application (Day 4). The collected skins were separated into the epidermis and the dermis, and the amounts of histamine in those skins were measured."}}, "data": [{"compound": "CCCCCCCCCCCCOS(=O)(=O)[O-].[Na+]", "note": "[SDS, sodium dodecyl sulfate]", "values": [{"measurement": "53 kDa-HDC (active) expression amount, dermis", "setting": "[1]", "result": "did not change"}, {"measurement": "53 kDa-HDC (active) expression amount, epidermis", "setting": "[1]", "result": "increased"}, {"measurement": "74 kDa-HDC (inactive) expression amount, dermis", "setting": "[1]", "result": "increased significantly"}, {"measurement": "74 kDa-HDC (inactive) expression amount, epidermis", "setting": "[1]", "result": "increased"}, {"measurement": "scratch bouts of mice (number in 60 mins.) after stimulating substance", "setting": "[2]", "result": "increased significantly with time"}, {"measurement": "amount of histamine in mouse dermis", "setting": "[3]", "result": "does not differ significantly"}, {"measurement": "amount of histamine in mouse epidermis", "setting": "[3]", "result": "significantly higher"}]}]}
